Results published in patent publication US4440757A, “Pharmaceutical composition comprising derivative of aminobenzoic acid for regulating prostaglandin” (priority 1978, dated 1984).

Experiments:
[1] = tested on: platelets (3 times concentrated PRP), cyclic AMP; test: Level of cyclic AMP in platelets; type: cell-based; settings: room temperature, 5 min
Procedure: PRP (platelet rich plasma) was prepared by the predetermined method and it was centrifugated for 20 min at 700XG to obtain a supernatant liquid named PPP (platelet poor plasma). The precipitate was re-floated in 1/3 times by volume of PPP to prepare 3 times concentrated PRP.
In the thus prepared concentrated PRP, each aqueous solution of the present substances of a pre-determined concentration (in this case, Specimens Nos. 4, 7 and 8) and an aqueous physiological saline solution, and the mixture was incubated at room temperature for 5 min. Then, the procedures of boiling, homogenating and centrifugating were carried out in this order, and 50 μl of the supernatant liquid was used for measuring cyclic AMP. The measurement was carried out following the method of Gilman. As a positive control, PGE1 was used.

male Sprague-Dowley rats = test: Leakage of dye-staff after skin stimulation with histamine and PGE1; type: in vivo; settings: 1000 mg/kg p.o.; with histamine + PGE1
Procedure: To the three groups of male Sprague-Dowley rats of the total six groups, the respective present substances (Specimens Nos. 4, 7 and 8) were forcibly administered by oral route at the rate of 1000 mg/kg, the other three groups being administered nothing at this time. After 60 min of the administration, a mixture of PGE1 (2.5×10^-11 mol/animal) and histamine (2×10^-8 mol/animal) was intracutaneously injected under light […] into the shaved skin of an abdominal part of four groups of the rats including three groups administered with the present substance.

[2] = tested on: cervical aorta of an SD rat, PGI2; test: PGI2 production by cuttings of cervical aorta; type: cell-based; settings: 50 microliters of 2% solution into 500 microliters, 10 min
Procedure: After extirpating the cervical aorta of an SD rat under anesthsia, it was washed with Krebs-Linger bicarbonate buffer solution and cut into thin rings, and the cutings were kept in the above-mentioned buffer solution at a rate of 1 mg of wet cuttings per 0.5 ml to produce PGI2.
Into 500 microliters of the thus prepared mixture, 50 micro-liters of an aqueous physiological saline solution containing 2% by weight of the present substance (each of Specimens Nos. 4, 7 and 8) dissolved therein were added and, since the production of PGI2 generally attains to its maximum after 10 min of keeping, a supernatant liquid (2.5 μl) of the mixture was prepared after 10 min of the addition, and then the amount of PGI2 in the supernatant liquid was determined by using the action of suppression of aggregation of the platelets as an index and using ADP as the agglutinating agent, only an aqueous physiological solution being used as control.

male Donryu rats = test: Stress ulcer of the stomach and 6-keto PGF1α; type: in vivo; settings: 1 g/kg p.o.; for Ulcer-coefficient: 7 hours stress, control 100; for Amount of 6-keto PGF1α: plasma, control 3.3
Procedure: Three groups of male Donryu rats of body weight of 220 to 250 g after 23.5 hours of fasting were administered orally with the present substance (each of Specimen Nos. 4, 7 and 8) at a rate of one gram/kg dissolved in 8 ml (per 200 g body weight) of an aqueous physiological saline solution.
These three groups of rats and another group of rats equally fasted for 23.5 hours and then administered with only the aqueous physiological saline solution were put into the stresscage, and soaked in water at a temperature of 23° C. to the depth of their breast to load the stress on the rats.
After 7 hours of soaking, the rats were pulled out from water and were immediately sacrificed to collect the whole blood, and their stomachs were extirpated. The plasma fraction prepared from the blood was extracted with ether and the etherextract was separated by thin layer chromatography. The separated extract, after converted to the respective methyloximesilyl derivatives, was subjected to gaschromatography-mass spectorography to determine the content of 6-keto PGF1α.
An aqueous 1% solution of formaldehyde was injected into the extirpated stomach and after 10 min of injection, the stomach was cut to be opened at the greater curvature side to examine the mucous membrane of the gastric body. The longer span of each erosion in the mucous membrane of a rat, if any, was measured microscopically, and its sum expressed by millimeter was taken as an ulcer coefficient of the rat.

[3] = tested on: streptozotocin diabetic rats; test: Blood sugar of diabetic rats; type: in vivo, male Sprague-Dowley rats; settings: 100 mg/kg p.o., 6 hours, diabetic rat; not administered 412.1, normal 76.7
Procedure: Groups of male Sprague-Dowley rats of body weight of about 200 g are used for the present experiments. Some groups of the rats were intravenously administered with streptozotocin at 80 mg/kg one to three months in advance of the beginning of the present experiment to be in a state of diabetes mellitus. Those rats of the same strain, the same sex and the same age without being administered with streptozotocin were used as control.
The present substances (Specimens Nos. 4, 7 and 8) were respectively administered to the groups of rats suffering from the artificial diabetes mellitus forcibly by oral route at a rate of 100 mg/kg as an aqueous solution in distilled water.
After 6 hours of the administration of the present substance, blood specimen was collected from the rat under anesthesia by ether in an amount of 0.5 ml/animal, and the content of blood sugar was measured by the enzymatic method.

[4] = Acute oral toxicity (Litchfield-Wilcoxon); settings: in vivo, mouse, 7 days
Procedure: The acute oral toxicity of the present substances were examined by using groups of ICR-JCL mouse and orally administering each of the representatives of present substances forcibly as an aqueous solution in distilled water or as an aqueous suspension also in distilled water at predetermined dosages, respectively. After observing the toxicological symptoms, if any, for 6 days, and recording the mortality until 7th day of the administration, LD50 (acute oral) was calculated by the method of Litchfield-Wilcoxon, and autopsy was carried out on dead mice and live mice to obtain informations.

[5] = tested on: washed platelets, malondialdehyde; test: Level of malondialdehyde (MDA) of platelets; type: cell-based, human; settings: Ca ionophore A-23187, 5 min, 37° C.
Procedure: PRP collected from human blood was centrifugated and washed to be "washed platelets". After adding one of the present substances (Specimens Nos. 4, 7 and 8) to the washed platelets, Caionophore A-23187 was further added to them and the mixture was incubated for 5 minutes at 37° C. Then, thiobarbituric acid was added to the incubated mixture, as a colour developer, and the mixture was extracted with a solvent mixture of methanol and butanol. The absorption at 535 nm was colorimetrically read to determine the amount of malondialdehyde (MDA). […] From this fact also, the participation of the present substance in the metabolism of PGs is presumable.

Ehrlich cancer = test: Cancer proliferation and PGE in the cancer cells (Ehrlich); type: in vivo, C57BL/6 mouse; settings: 100 mg/kg i.p. every other day, 14th day; for Weight of cancer: control 1.30; for Content of PGE in the cancer: control 1.77
Procedure: Following the same method as in Example 12, the anti-cancer action against transplanted Ehrlich cancer in C57BL/6 mouse, and the amount of PGE in the cancer cells in proliferation in the living body of the mouse were examined in the cases where each one compound of the present invention, Specimens Nos. 1, 2, 3, 4, 5, 6, 8, 9, 10 and 11 was intraperitoneally administered every other day from the next day of the transplantation in total 6 times at a dosage of 100 mg/kg.
The results of determination of the weight of cancer extirpated from the sacrificed mouse on 14th day of the transplantation of the cancer cells, 1×10^6 in number per animal, and content of PGE of the extirpated cancer are shown in the following Table 13: […]

Structure (SMILES)	level of intra-platelet cyclic AMP (FIG. 7) [1]	Absorbance at 620 nm (dye leakage) (male Sprague-Dowley rats)	production of PGI2 by cuttings of cervical aorta (FIG. 15) [2]	Ulcer-coefficient (male Donryu rats) [%]	Amount of 6-keto PGF1α (male Donryu rats) [ng/mL]	Blood sugar [3] [mg/100 ml]	LD50 at 168 h [4] [mg/kg]	production of malondialdehyde (MDA) (FIG. 8) [5]	Weight of cancer (Ehrlich cancer) [g]	Content of PGE in the cancer (Ehrlich cancer) [ng/g]
O=C(O)c1ccc(NC2OC[C@@H](O)[C@H](O)[C@H]2O)cc1 (stereo partly drawn) [Specimen No. 7, Sodium p-aminobenzoate-N--D-xyloside]	raising the level of intra-platelet cellular cyclic AMP	0.152	raised the production of PGI2	58	3.9	165.0 ± 11.0	11800	suppressed the production of MDA	0.75	3.98
O=C(O)c1ccc(NC2O[C@H](CO)[C@@H](O)[C@H](O)[C@@H]2O)cc1 (stereo partly drawn) [Specimen No. 4, Sodium p-aminobenzoate-N--D-mannoside]	raising the level of intra-platelet cellular cyclic AMP	0.155	raised the production of PGI2	62	3.8	133.6 ± 8.3	> 10000	suppressed the production of MDA	0.56	4.19
C[C@@H]1OC(Nc2ccc(C(=O)O)cc2)[C@H](O)[C@H](O)[C@H]1O (stereo partly drawn) [Specimen No. 8, Sodium p-aminobenzoate-N--L-rhamnoside]	raising the level of intra-platelet cellular cyclic AMP	0.162	raised the production of PGI2	55	3.6	110.1 ± 5.5	12800	suppressed the production of MDA	0.72	4.03
